Our source for the IC50 values is patent US11091478B2 (Fochon Pharmaceuticals, Ltd., priority 2017, dated 2021).

Assay [1] concerns DOHH2 cells. Put plainly: Cell proliferation assay (MTS), DOHH2 cells, 120 h. The format is cell-based. The settings on record: Homo sapiens, DOHH-2, 120 h. The essentials:
(§1)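 Treatment lasts 72 h for RS4;11 and 120 h for DOHH2 cells seeded at 5000 per well in serum-containing RPMI-1640. A 2 h MTS step, halted with 10% SDS, precedes dual-wavelength absorbance reading and IC50 fitting.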

Assay [2] relates to RS4;11 cells. Put plainly: Cell proliferation assay (MTS), RS4;11 cells, 72 h. It is filed as cell-based. The settings on record: Homo sapiens, RS4-11, 72 h. The essentials:
as §1

On to `CC1(C)CCC(CN2CCN(c3ccc(C(=O)NS(=O)(=O)c4cc5c(c([N+](=O)[O-])c4)N[C@@H](CN4CC(C)(O)C4)CO5)c(Oc4cnc5[nH]ccc5c4)c3)CC2)=C(c2ccc(Cl)cc2)C1` [Example 2-25, (S)-2-((1H-pyrrolo[2,3-b]pyridin-5-yl)oxy)-4-(4-((4′-chloro-5,5-dimethyl-3,4,5,6-tetra-hydro-[1,1′-biphenyl]-2-yl)methyl)piperazin-1-yl)-N-((3-((3-hydroxy-3-methylazetidin-1-yl)methyl)-5-nitro-3,4-dihydro-2H-ben-zo[b][1,4]oxazin-7-yl)sulfonyl)benzamide], for which the IC50 – broadly, the concentration needed to halve the response being measured – came to 10 nM in assay [1] and 8 nM in assay [2].

Take `C[C@@H]1CN(C[C@H]2COc3cc(S(=O)(=O)NC(=O)c4ccc(N5CCN(CC6=C(c7ccc(Cl)cc7)CC(C)(C)CC6)CC5)cc4Oc4cnc5[nH]ccc5c4)cc([N+](=O)[O-])c3N2)CCN1C` [Example 2-26, 2-((1H-pyrrolo[2,3-b]pyridin-5-yl)oxy)-4-(4-((4′-chloro-5,5-dimethyl-3,4,5,6-tetrahydro-[1,1′-biphenyl]-2-yl)methyl)piperazin-1-yl)-N-(((S)-3-(((R)-3,4-dimethylpiperazin-1-yl)methyl)-5-nitro-3,4-dihydro-2H-benzo [b][1,4]oxazin-7-yl)sulfonyl)benzamide]: the half-inhibitory concentration (IC50) in assay [1] amounted to 19 nM; in assay [2], 6 nM.

Take `C[C@H]1CN(C[C@H]2COc3cc(S(=O)(=O)NC(=O)c4ccc(N5CCN(CC6=C(c7ccc(Cl)cc7)CC(C)(C)CC6)CC5)cc4Oc4cnc5[nH]ccc5c4)cc([N+](=O)[O-])c3N2)CCN1C` [Example 2-27, 2-((1H-pyrrolo[2,3-b]pyridin-5-yl)oxy)-4-(4-((4′-chloro-5,5-dimethyl-3,4,5,6-tetra-hydro-[1,1′-biphenyl]-2-yl)methyl)piperazin-1-yl)-N-(((S)-3-(((S)-3,4-dimethylpiperazin-1-yl)methyl)-5-nitro-3,4-dihydro-2H-benzo [b][1,4]oxazin-7-yl)sulfonyl)benzamide]: the half-inhibitory concentration (IC50) in assay [1] was determined as 12 nM; in assay [2] it was 1 nM.

`CC1(C)CCC(CN2CCN(c3ccc(C(=O)NS(=O)(=O)c4cc5c(c([N+](=O)[O-])c4)N[C@@H](CN4CCN(C6COC6)CC4)CO5)c(Oc4cnc5[nH]ccc5c4)c3)CC2)=C(c2ccc(Cl)cc2)C1` [Example 2-28, (S)-2-((1H-pyrrolo[2,3-b]pyridin-5-yl)oxy)-4-(4-((4′-chloro-5,5-dimethyl-3,4,5,6-tetra-hydro-[1,1′-biphenyl]-2-yl)methyl)piperazin-1-yl)-N-((5-nitro-3-((4-(oxetan-3-yl)piper-azin-1-yl)methyl)-3,4-dihydro-2H-benzo[b] [1,4]oxazin-7-yl)sulfonyl)benzamide]: the IC50 in assay [1] and in assay [2] was 1 nM in each case.

In the case of `C[C@@H]1CN(C[C@H]2COc3cc(S(=O)(=O)NC(=O)c4ccc(N5CCN(CC6=C(c7ccc(Cl)cc7)CC(C)(C)CC6)CC5)cc4Oc4cnc5[nH]ccc5c4)cc([N+](=O)[O-])c3N2)CCN1C1COC1` [Example 2-29, 2-((1H-pyrrolo[2,3-b]pyridin-5-yl)oxy)-4-(4-((4′-chloro-5,5-dimethyl-3,4,5,6-tetrahydro-[1,1′-biphenyl]-2-yl)methyl)piperazin-1-yl)-N-(((S)-3-(((R)-3-methyl-4-(oxetan-3-yl)piperazin-1-yl)methyl)-5-nitro-3,4-dihydro-2H-benzo[b][1,4]oxazin-7-yl)sulfonyl) benzamide], the IC50 in assay [1] stood at 7 nM; in assay [2] it was 1 nM.

Turning to `C[C@H]1CN(C[C@H]2COc3cc(S(=O)(=O)NC(=O)c4ccc(N5CCN(CC6=C(c7ccc(Cl)cc7)CC(C)(C)CC6)CC5)cc4Oc4cnc5[nH]ccc5c4)cc([N+](=O)[O-])c3N2)CCN1C1COC1` [Example 2-30], the concentration for half-maximal inhibition (IC50) was determined as 8 nM in assay [1] and 1 nM in assay [2].

Consider `C[C@H]1CN(C[C@H]2COc3cc(S(=O)(=O)NC(=O)c4ccc(N5CCN(CC6=C(c7ccc(Cl)cc7)CC(C)(C)CC6)CC5)cc4Oc4cnc5[nH]ccc5c4)cc([N+](=O)[O-])c3N2)CCO1` [Example 2-31, 2-((1H-pyrrolo[2,3-b]pyridin-5-yl)oxy)-4-(4-((4′-chloro-5,5-dimethyl-3,4,5,6-tetrahydro-[1,1′-biphenyl]-2-yl)methyl)piperazin-1-yl)-N-(((S)-3-(((S)-2-methylmorpholino)meth-yl)-5-nitro-3,4-dihydro-2H-benzo[b][1,4]oxazin-7-yl)sulfonyl)benzamide], for which the IC50 is 18 nM in assay [1] and 7 nM in assay [2].

With `C[C@@H]1CN(C[C@H]2COc3cc(S(=O)(=O)NC(=O)c4ccc(N5CCN(CC6=C(c7ccc(Cl)cc7)CC(C)(C)CC6)CC5)cc4Oc4cnc5[nH]ccc5c4)cc([N+](=O)[O-])c3N2)CCO1` [Example 2-32, 2-((1H-pyrrolo[2,3-b]pyridin-5-yl)oxy)-4-(4-((4′-chloro-5,5-dimethyl-3,4,5,6-tetrahydro-[1,1′-biphenyl]-2-yl)methyl)piperazin-1-yl)-N-(((S)-3-(((R)-2-methylmorpholino)meth-yl)-5-nitro-3,4-dihydro-2H-benzo[b][1,4]oxazin-7-yl)sulfonyl)benzamide], the half-maximal inhibitory concentration (IC50) stood at 34 nM in assay [1] and 18 nM in assay [2].

Consider `CC1(C)CCC(CN2CCN(c3ccc(C(=O)NS(=O)(=O)c4cc5c(c([N+](=O)[O-])c4)N[C@H](CCN=S(C)(C)=O)CO5)c(Oc4cnc5[nH]ccc5c4)c3)CC2)=C(c2ccc(Cl)cc2)C1` [Example 2-33, (R)-2-((1H-pyrrolo[2,3-b]pyridin-5-yl)oxy)-4-(4-((4′-chloro-5,5-dimethyl-3,4,5,6-tetra-hydro-[1,1′-biphenyl]-2-yl)methyl)piperazin-1-yl)-N-((3-(2-((dimethyl(oxo)-l6-sulfanyl-idene)amino)ethyl)-5-nitro-3,4-dihydro-2H-benzo[b][1,4]oxazin-7-yl)sulfonyl)benza-mide], for which the IC50 in assay [1] is 25 nM; in assay [2] it was 11 nM.

For `CC1(C)CCC(CN2CCN(c3ccc(C(=O)NS(=O)(=O)c4cc5c(c([N+](=O)[O-])c4)N[C@H](CCN4CC(O)C4)CO5)c(Oc4cnc5[nH]ccc5c4)c3)CC2)=C(c2ccc(Cl)cc2)C1` [Example 2-34, (R)-2-((1H-pyrrolo[2,3-b]pyridin-5-yl)oxy)-4-(4-((4′-chloro-5,5-dimethyl-3,4,5,6-tetra-hydro-[1,1′-biphenyl]-2-yl)methyl)piperazin-1-yl)-N-((3-(2-(3-hydroxyazetidin-1-yl)eth-yl)-5-nitro-3,4-dihydro-2H-benzo[b][1,4]oxazin-7-yl)sulfonyl)benzamide], the figures for the 50% inhibitory concentration (IC50) in assay [1] and in assay [2] were 41 nM and 14 nM, respectively.

In the case of `CC1(C)CCC(CN2CCN(c3ccc(C(=O)NS(=O)(=O)c4cc5c(c([N+](=O)[O-])c4)N[C@H](CCN4CC(C)(O)C4)CO5)c(Oc4cnc5[nH]ccc5c4)c3)CC2)=C(c2ccc(Cl)cc2)C1` [Example 2-35, (R)-2-((1H-pyrrolo[2,3-b]pyridin-5-yl)oxy)-4-(4-((4′-chloro-5,5-dimethyl-3,4,5,6-tetra-hydro-[1,1′-biphenyl]-2-yl)methyl)piperazin-1-yl)-N-((3-(2-(3-hydroxy-3-methylazetidin-1-yl)ethyl)-5-nitro-3,4-dihydro-2H-ben-zo[b][1,4]oxazin-7-yl)sulfonyl)benzamide], the half-inhibitory concentration (IC50) is 30 nM in assay [1] and 5 nM in assay [2].

On to `C[C@@H]1CN(CC[C@@H]2COc3cc(S(=O)(=O)NC(=O)c4ccc(N5CCN(CC6=C(c7ccc(Cl)cc7)CC(C)(C)CC6)CC5)cc4Oc4cnc5[nH]ccc5c4)cc([N+](=O)[O-])c3N2)CCN1C` [Example 2-36, 2-((1H-pyrrolo[2,3-b]pyridin-5-yl)oxy)-4-(4-((4′-chloro-5,5-dimethyl-3,4,5,6-tetrahydro-[1,1′-biphenyl]-2-yl)methyl)piperazin-1-yl)-N-(((R)-3-(2-((R)-3,4-dimethylpiperazin-1-yl)ethyl)-5-nitro-3,4-dihydro-2H-benzo [b][1,4]oxazin-7-yl)sulfonyl)benzamide], for which the IC50 was 33 nM in assay [1] and 7 nM in assay [2].

As for `C[C@H]1CN(CC[C@@H]2COc3cc(S(=O)(=O)NC(=O)c4ccc(N5CCN(CC6=C(c7ccc(Cl)cc7)CC(C)(C)CC6)CC5)cc4Oc4cnc5[nH]ccc5c4)cc([N+](=O)[O-])c3N2)CCN1C` [Example 2-37, 2-((1H-pyrrolo[2,3-b]pyridin-5-yl)oxy)-4-(4-((4′-chloro-5,5-dimethyl-3,4,5,6-tetrahydro-[1,1′-biphenyl]-2-yl)methyl)piperazin-1-yl)-N-(((R)-3-(2-((S)-3,4-dimethylpiperazin-1-yl)ethyl)-5-nitro-3,4-dihydro-2H-benzo [b][1,4]oxazin-7-yl)sulfonyl)benzamide], the figures for the IC50 in assay [1] and in assay [2] were 25 nM and 1 nM, respectively.

For the compound `CC1(C)CCC(CN2CCN(c3ccc(C(=O)NS(=O)(=O)c4cc5c(c([N+](=O)[O-])c4)N[C@H](CCN4CCN(C6COC6)CC4)CO5)c(Oc4cnc5[nH]ccc5c4)c3)CC2)=C(c2ccc(Cl)cc2)C1` [Example 2-38, (R)-2-((1H-pyrrolo[2,3-b]pyridin-5-yl)oxy)-4-(4-((4′-chloro-5,5-dimethyl-3,4,5,6-tetra-hydro-[1,1′-biphenyl]-2-yl)methyl)piperazin-1-yl)-N-((5-nitro-3-(2-(4-(oxetan-3-yl)piperazin-1-yl)ethyl)-3,4-dihydro-2H-benzo [b][1,4]oxazin-7-yl)sulfonyl)benzamide], the figures for the concentration for half-maximal inhibition (IC50) in assay [1] and in assay [2] were 27 nM and 1 nM, respectively.

`C[C@@H]1CN(CC[C@@H]2COc3cc(S(=O)(=O)NC(=O)c4ccc(N5CCN(CC6=C(c7ccc(Cl)cc7)CC(C)(C)CC6)CC5)cc4Oc4cnc5[nH]ccc5c4)cc([N+](=O)[O-])c3N2)CCN1C1COC1` [Example 2-39, 2-((1H-pyrrolo[2,3-b]pyridin-5-yl)oxy)-4-(4-((4′-chloro-5,5-dimethyl-3,4,5,6-tetrahydro-[1,1′-biphenyl]-2-yl)methyl)piperazin-1-yl)-N-(((R)-3-(2-((R)-3-methyl-4-(oxetan-3-yl)piperazin-1-yl)ethyl)-5-nitro-3,4-dihydro-2H-benzo[b][1,4]oxazin-7-yl)sulfonyl) benzamide]: the IC50 stood at 33 nM in assay [1] and 9 nM in assay [2].
